{"source": "patent US11154564B2", "about": "“Composition for cough” (Aboca S.p.A. Società Agricola, priority 2017, dated 2021)", "key": {"[1]": {"system": "human keratocytes", "assay": "Scavenger-type anti-oxidizing activity assay (DCA probe, H2O2 oxidative stress)", "format": "cell-based", "conditions": "0.05 mg/ml", "source_text": "Assessment of anti-oxidizing activity of the sample on human cells exposed to chemical-type progressive oxidative stress. The assessment of anti-oxidizing action is obtained from quantification of free radical formation in cells exposed to the sample and to oxidative stress. The method applied is based on the use of the fluorimetric probe 2,7 dichlorofluorescein acetate-DCA-: this probe penetrates into cells, binds to cell membrane proteins and macromolecules. In this form, the probe is not fluorescent, only becoming fluorescent when oxidized by free radicals. Cells pretreated with DCA are exposed to the various dilutions of the sample and hydrogen peroxide. […] Starting from this mother solution, the first dilution was prepared at a concentration of 0.5 mg/ml in saline; therefrom, by applying a 1:2 dilution factor, the other four dilutions were obtained. Positive Control: cells exposed to the 500 μM H2O2 solution. Internal Control: cells exposed to an ascorbic acid solution (0.05 mg/ml). Negative Control: cells exposed to the inoculation medium. The assay was performed on a simple cell model consisting of a monolayer of stabilized human keratocytes (cells were purchased from IZSLER and are guaranteed as free from any viral/bacterial contamination and/or from mycoplasma). […] The same procedure was carried out to obtain the same five dilutions in a 500 μM H2O2 solution in saline. 150 μl per each dilution (in saline and in H2O2) were distributed into four wells on two different plates. Cultured cells were enzymatically detached from the growth medium and counted with an electronic cell counter (Scepter); a cell suspension was prepared (in inoculation medium) at the density of 300,000 cells/ml, which were then distributed into 96-well plates: 100 μl per well, obtaining a seeding density of 30,000 cells per well. Lastly, the plates were placed back to culture in an incubator at 37° C. and 5% CO2-enriched humid atmosphere for the subsequent 24 hours. The inoculation medium was removed, cells were washed once with PBS, then PBS was discarded and 150 μl DCA (4 μM) was distributed in both plates. Then, the plates were placed back in incubator at 37° C. and 5% CO2-enriched atmosphere for 15 minutes. At the end of the DCA incubation period, the solution was removed, and cells were washed once with PBS, then 150 μl of the above-described dilutions of the sample and of the controls were distributed in the plates. Then, free radical formation was measured from T0 (right after inoculation into the two plates) every 20 minutes, up to 100 minutes (5 measurements) with a fluorimeter. At the end of the measurements, after the 100 minutes, the inoculate of both plates was removed and Neutral Red Uptake vitality assay was performed. F.U.: fluorescence unit F.U. positive control: average of F.U. emitted from cells exposed to the H2O2 solution (maximum production of free radicals) F.U. negative control: average of F.U. emitted from cells not exposed to oxidative stress At each time interval of exposure ([NT]5) there were carried out: the average of F.U. emitted from cells exposed to the sample, to vitamin C without oxidative stress, is subtracted from the average of F.U. emitted from cells exposed to the sample, to vitamin C and oxidative stress. In other words, the average values of fluorescence emitted from the non-stressed plate were subtracted from the average values of fluorescence emitted from the stressed plate. […]: cells exposed to the sole sample F.U. Controlpos: cells exposed to the sole oxidative stress F.U. Controlneg: cells exposed to saline without oxidative stress"}, "[2]": {"assay": "Stability of the composition (total tannins as pyrogallol, EP 9.2, 2.8.14)", "format": "physicochemical", "conditions": "fluid form (syrup), 40° C. and 75% of relative humidity, six months", "method": "The stability of the composition of the invention in fluid form (syrup, as per examples above, at 2) with regard to tannins was assessed by measuring the content of total tannins, expressed as pyrogallol, by means of spectrophotometric method described in European Pharmacopoeia (EP 9.2, 2.8.14) for agrimony."}}, "data": [{"smiles": "O=C1O[C@H]([C@@H](O)CO)C(O)=C1O", "note": "[Vit. C, Ascorbic acid]", "values": [{"measurement": "% PROTECTION FROM FREE RADICALS", "setting": "[1]; 20 MIN, 500 μM H2O2", "value": 57, "unit": "%"}, {"measurement": "FREE RADICAL DEVELOPMENT", "setting": "[1]; 20 MIN, 500 μM H2O2", "value": 5993}, {"measurement": "% PROTECTION FROM FREE RADICALS", "setting": "[1]; 40 MIN, 500 μM H2O2", "value": 60, "unit": "%"}, {"measurement": "FREE RADICAL DEVELOPMENT", "setting": "[1]; 40 MIN, 500 μM H2O2", "value": 5721}, {"measurement": "% PROTECTION FROM FREE RADICALS", "setting": "[1]; 60 MIN, 500 μM H2O2", "value": 60, "unit": "%"}, {"measurement": "FREE RADICAL DEVELOPMENT", "setting": "[1]; 60 MIN, 500 μM H2O2", "value": 5240}, {"measurement": "% PROTECTION FROM FREE RADICALS", "setting": "[1]; 80 MIN, 500 μM H2O2", "value": 63, "unit": "%"}, {"measurement": "FREE RADICAL DEVELOPMENT", "setting": "[1]; 80 MIN, 500 μM H2O2", "value": 4802}, {"measurement": "% PROTECTION FROM FREE RADICALS", "setting": "[1]; 100 MIN, 500 μM H2O2", "value": 61, "unit": "%"}, {"measurement": "FREE RADICAL DEVELOPMENT", "setting": "[1]; 100 MIN, 500 μM H2O2", "value": 4937}, {"measurement": "% PROTECTION FROM FREE RADICALS", "setting": "[1]; T0, 500 μM H2O2", "value": 45, "unit": "%"}, {"measurement": "FREE RADICAL DEVELOPMENT", "setting": "[1]; T0, 500 μM H2O2", "value": 5654}, {"measurement": "stability in fluid form", "setting": "[2]; listed as Vitamin C", "value": "did not exhibit stability beyond T0"}, {"measurement": "stability in fluid form", "setting": "[2]; listed as vitamin C", "value": "markedly unstable"}]}]}
